Where two headings read alike, the source gives them in different places.
Assays:
[1] = tested on: thyroglobulin (tg:mCherry reporter gene); assay: animal or person; details: for EC50: read-out: EC50 (tg:mCherry induction)
Method: In order to avoid interference of test chemicals with early thyroid gland development, zebrafish embryos were cultured in exposure medium until 48 hours post fertilization (hpf). Subsequently, they were exposed to seven known thyroid endocrine disrupters for 3 days (48 to 120 hpf). The non-goitrogenic compound 3,4-dichloroaniline, that is used as reference compound in the zebrafish acute embryo toxicity test was used as negative control. […] No solvents were used. […] Five concentrations and one control were tested per compound and replicate. In the second replicate the range of concentration was adjusted to improve fitting of concentration-response curves. […] Given the lack of appropriate spectral properties stability of exposure concentrations was not analysed for potassium perchlorate. Embryos were kept in the incubator at 26°C and a 14:10 hours light:dark cycle. The exposure was conducted in crystallisation dishes covered with watchmaker glasses with 30 embryos in 30 ml exposure medium (for exposure medium refer to [26]).
Embryos were positioned ventrally toward the microscope objective. Per embryo a bright field image, an autofocus fluorescence image and a Z-stack of 9 images were obtained. The Z-stack was required in case of autofocus failure and manual selection of the focal plane. Fluorescence images were obtained with 400 ms of fluorescent light exposure at maximal light intensity and a gain of 1. […] However, care was taken, that at least 10 images per concentration and replicates were assessed. To avoid a time bias during the analysis the sequence of wells for analysis was arranged in order to obtain a uniform distribution over the entire period of analysis.
The images were analysed using a KNIME workflow (Version 3.3.3., [29]) with the extension “KNIME image processing”. In brief, images were loaded into the workflow and the background was removed automatically using the “rolling ball” procedure of the image J plugin (rolling ball size set to 50 pixels). Subsequently the area containing the thyroid gland was manually selected by drawing a rectangle around the appropriate region using the interactive annotation node. […] If possible the autofocus images were used. In case that the thyroid gland was out of focus due to the presence of autofluorescing pigment cells, an appropriate image from the Z-stack was selected. All subsequent steps were conducted without any user interaction. […] Finally the sum of pixel (reflecting area of the thyroid gland and intensity of fluorescence) was calculated for the labeled area and used as a proxy of fluorescence intensity (see Fig 1 for an overview of the workflow). For each replicate the sum was of pixels was normalized by setting controls to the value of one. For data of individual embryos see S4 Table. The KNIME workflow used for image analysis is provided as supplement file (S1 Workflow).
To characterize the potency of the investigated goitrogenic compounds, we calculated EC50 values of tg:mcherry fluorescence using the pixel sum obtained from image analysis. For each replicate the fluorescence intensity was normalized by dividing the mean fluorescence intensity of each concentration with the mean control fluorescence intensity. Concentration-response curves of tgmcherry fluorescence were fitted to the data using the Hill-slope equation (Eq 1) and used to estimate EC50 values.
The parameter Min was set to 1 and the slope (p) and the maximum fluorescence (Max) were estimated.

[2] = tested on: thyroid hormone levels (T4); details: cited from earlier work; for EC50: read-out: EC50 T4 reduction
[3] = ref chemspider (http://www.chemspider.com); cited from earlier work
[4] = tested on: zebrafish embryos; assay: in vivo; details: for Slope: mortality concentration-response curve
Method: Fish embryo acute toxicity tests were performed similar as described previously, using 10 or 25 embryos per concentration and replicate exposed in crystallization dishes from 48 to 120 hpf. No exchange of exposure media was performed. Lethality was identified by coagulation, missing heartbeat, a non–detached tail and/or missing of somites. Raw data for mortality and phenotypic assessment are provided as S1 Table. Concentration-response curves for mortality are shown in S2 Fig.

[5] = reduction of thyroid hormone levels (immunostaining), ref Thienpont et al. [13]
[6] = 72 hpf, 17777.78 µmol/L, replicate 2, 10 embryos
[7] = 72 hpf, 26666.67 µmol/L, replicate 2, 10 embryos
[8] = 72 hpf, 40000.00 µmol/L, replicate 2, 10 embryos
[9] = 72 hpf, 60000.00 µmol/L, replicate 2, 10 embryos
[10] = 72 hpf, 90000.00 µmol/L, replicate 2, 10 embryos
[11] = 96 hpf, 17777.78 µmol/L, replicate 2, 10 embryos
[12] = 96 hpf, 26666.67 µmol/L, replicate 2, 10 embryos
[13] = 96 hpf, 40000.00 µmol/L, replicate 2, 10 embryos
[14] = 96 hpf, 60000.00 µmol/L, replicate 2, 10 embryos
[15] = 96 hpf, 90000.00 µmol/L, replicate 2, 10 embryos
[16] = 120 hpf, 5625.00 µmol/L, replicate 1, 25 embryos
[17] = 120 hpf, 11250.00 µmol/L, replicate 1, 25 embryos
[18] = 120 hpf, 17777.78 µmol/L, replicate 2, 10 embryos
[19] = 120 hpf, 22500.00 µmol/L, replicate 1, 25 embryos
[20] = 120 hpf, 26666.67 µmol/L, replicate 2, 10 embryos
[21] = 120 hpf, 40000.00 µmol/L, replicate 2, 10 embryos
[22] = 120 hpf, 45000.00 µmol/L, replicate 1, 25 embryos
[23] = 120 hpf, 60000.00 µmol/L, replicate 2, 10 embryos
[24] = 120 hpf, 90000.00 µmol/L, replicate 1, 25 embryos
[25] = 120 hpf, 90000.00 µmol/L, replicate 2, 10 embryos

Structure (SMILES): CCCc1cc(=O)[nH]c(=S)[nH]1 [Propylthiouracil, 6-propyl-2-thiouracil]
- EC50 ([1]; Danio rerio): 334 µM
- BMD 20 ([1]; zebrafish, in vivo): 163 µM
- Slope ([1]; zebrafish, in vivo): 1.7
- EC50 ([2]; zebrafish, in vivo): 137 µM
- TDI (T4) ([2]; zebrafish, in vivo): 20

Structure (SMILES): Oc1cc(O)cc(O)c1 [Phloroglucinol, phloroglucinol]
- EC50 ([1]; Danio rerio): 1100 µM
- BMD 20 ([1]; zebrafish, in vivo): 252 µM
- Slope ([1]; zebrafish, in vivo): 0.89
- Log D (pH 7.4) [3]: 0.24
- EC50 [2, 5]: 2700 µM
- TDI (T4) ([2]; thyroid disruption index based on T4 reduction, ref Thienpont et al. [13]): 32

Structure (SMILES): c1cn[nH]c1 [Pyrazole, pyrazole]
- EC50 ([1]; zebrafish, in vivo): 637 µM
- BMD 20 ([1]; zebrafish, in vivo): 399 µM
- Slope ([1]; zebrafish, in vivo): 5.7
- TDI ([1]; zebrafish, in vivo): 67
- No Surviving [4, 6]: 10
- No hatched [4, 6]: 0
- No Surviving [4, 7]: 10
- No hatched [4, 7]: 0
- No Surviving [4, 8]: 10
- No hatched [4, 8]: 0
- Total Sublethal [4, 8]: 3
- nobc (no blood circulation) [4, 8]: 3
- No Surviving [4, 9]: 0
- No hatched [4, 9]: 0
- nohb (no heartbeat) [4, 9]: 10
- No Surviving [4, 10]: 0
- No hatched [4, 10]: 0
- nohb (no heartbeat) [4, 10]: 10
- No Surviving [4, 11]: 10
- No hatched [4, 11]: 10
- No Surviving [4, 12]: 10
- No hatched [4, 12]: 8
- No Surviving [4, 13]: 10
- No hatched [4, 13]: 9
- Total Sublethal [4, 13]: 10
- nomov (no spontaneous movement) [4, 13]: 10
- No Surviving [4, 14]: 0
- No hatched [4, 14]: 0
- k/f (coagulated) [4, 14]: 5
- nohb (no heartbeat) [4, 14]: 5
- No Surviving [4, 15]: 0
- No hatched [4, 15]: 0
- k/f (coagulated) [4, 15]: 10
- No Surviving [4, 16]: 25
- Sublethal effects Total Sublethal [4, 16]: 1
- No Surviving [4, 17]: 25
- Sublethal effects Total Sublethal [4, 17]: 1
- No Surviving [4, 18]: 10
- No hatched [4, 18]: 10
- Lethal effects k/f [4, 19]: 2
- No Surviving [4, 19]: 23
- Sublethal effects Total Sublethal [4, 19]: 12
- No Surviving [4, 20]: 10
- No hatched [4, 20]: 9
- Sublethal effects Total Sublethal [4, 20]: 4
- Sublethal effects mch [4, 20]: 1
- Sublethal effects nomov [4, 20]: 4
- No Surviving [4, 21]: 10
- No hatched [4, 21]: 9
- Sublethal effects EdY / EdP [4, 21]: 9
- Sublethal effects Total Sublethal [4, 21]: 10
- Sublethal effects nobc [4, 21]: 4
- Sublethal effects nomov [4, 21]: 8
- Lethal effects k/f [4, 22]: 25
- No Surviving [4, 22]: 0
- Lethal effects k/f [4, 23]: 10
- No Surviving [4, 23]: 0
- No hatched [4, 23]: 0
- Lethal effects k/f [4, 24]: 25
- No Surviving [4, 24]: 0
- Lethal effects k/f [4, 25]: 10
- No Surviving [4, 25]: 0
- No hatched [4, 25]: 0
- LC50 ([4]; mortality after 24 h of exposure, S2 Fig, unit inferred): 49000 µM
- LC50 ([4]; mortality after 48 h of exposure, S2 Fig, unit inferred): 49000 µM
- Slope ([4]; 24 h of exposure): 56.2
- Slope ([4]; 48 h of exposure): 56.2
- Slope ([4]; 72 h of exposure): 132
- LC50 ([4]; read-out: LC50 (48–120 hpf), mortality, embryos exposed 48–120 hpf): 42400 µM
- Log D (pH 7.4) [3]: 0.43

Structure (SMILES): S=C1NCCN1 [Ethylenethiourea, N, N’-ethylenethiourea]
- EC50 ([1]; Danio rerio): 366 µM
- BMD 20 ([1]; zebrafish, in vivo): 246 µM
- Slope ([1]; zebrafish, in vivo): 3.8
- Log D (pH 7.4) [3]: -0.52
- EC50 [2, 5]: 135 µM
